Measured values from PMC5006645 (EBioMedicine, 2016).
Values belong to the compound of their own block, whether it stands above or below them.

Legend:
[1] = system: TCF/LIF/β-catenin complex; test: Top-Flash luciferase reporter in U33/γ2 cells; format: cell-based; conditions: 72 h
cortical bone = test: Cortical tissue mineral density; format: in vivo, C57BL/6 mice; conditions: mouse model not stated; control 954.6 ± 17.6
PPARγ = format: cell-based; conditions: AD2 cells; 1 μM rosiglitazone or 5 μM SR10171 1 h, then TNF-α 50 ng/ml 1 h
[2] = Plasma levels at the end of experiments; format: in vivo, C57BL/6 mice; conditions: for concentration at 4 days: C57BL/6, mouse, plasma, 5 mg/kg/d
PPARα = target: T1, PPARα (Homo sapiens, UniProt Q07869)
T1 sequence (Q07869 200-468 limits assumed): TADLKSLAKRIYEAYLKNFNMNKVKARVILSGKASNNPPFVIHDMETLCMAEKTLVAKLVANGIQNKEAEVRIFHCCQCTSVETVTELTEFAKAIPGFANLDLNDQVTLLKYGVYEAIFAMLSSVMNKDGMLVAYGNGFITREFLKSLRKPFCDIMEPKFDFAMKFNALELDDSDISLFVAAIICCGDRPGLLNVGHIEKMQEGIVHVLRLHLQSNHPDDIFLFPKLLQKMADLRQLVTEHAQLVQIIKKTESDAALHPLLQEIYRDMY

[3] = system: trabecular and cortical bone of lean C57BL/6 mice; test: Lean mice experiment: bone mCT and histomorphometry; conditions: for mineral apposition rate (MAR) and bone formation rate (BFR): proximal tibia
marrow MSCs = test: Marrow MSC cultures: adipocyte markers and CFU-OB osteoblast differentiation; format: cell-based; conditions: marrow MSC culture, 6 days; 10 μM SR10171 or 1 μM rosiglitazone
[4] = system: osteocytes from femora cortical bone; test: Gene expression in osteocytes freshly isolated from femora of treated animals; format: in vivo, C57BL/6 mice
S273pPPARγ = test: Inhibition of S273 phosphorylation of PPARγ; format: biochemical
[5] = Glucose tolerance test in DIO mice; format: in vivo, C57BL/6 mice; conditions: DIO animals, 25 mg/kg/d, 4 weeks
[6] = system: trabecular and cortical bone of lean C57BL/6 mice; conditions: 15 mg/kg/d, 8 weeks; previously established, ref not given; cited from earlier work
[7] = system: non-adherent bone marrow cells; test: Osteoclastogenesis assay from non-adherent bone marrow cells; format: cell-based; conditions: ex vivo; 10 μM SR10171 or 1 μM rosiglitazone; M-CSF and RANKL
[8] = system: bone and marrow fat of DIO C57BL/6 mice; format: in vivo
[9] = Body weight of treated mice; format: in vivo, C57BL/6 mice
[10] = midshaft tibia, calcein labeling

- concentration at 4 days [2]: 1670 nM
- EC50 PPARα GAL-4 (PPARα): No activity
SMILES: CN(CCOc1ccc(CC2SC(=O)NC2=O)cc1)c1ccccn1 (racemic) [Rosiglitazone, (RS)-5-[4-(2-[methyl(pyridin-2-yl)amino]ethoxy)benzyl]thiazolidine-2,4-dione, reference compound]
- β-catenin transcriptional activity (Top-Flash) [1]: decreased
- cortical tissue mineral density (TMD) (cortical bone): 954.5 ± 17.9 mg HA/cm^3
- phosphorylation of S112 of PPARγ (PPARγ): alters
- phosphorylation of S273 of PPARγ (PPARγ): block
- increase of adipocyte number ([3]; 15 mg/kg/d, 8 weeks): 5 fold
- trabecular bone mass ([3]; 15 mg/kg/d, 8 weeks): decreased
- mineral apposition rate (MAR) and bone formation rate (BFR) ([3]; 15 mg/kg/d, 8 weeks): attenuated
- basal expression of Fabp4 and Adipoq (marrow MSCs): increased
- Dkk1 expression in osteocytes of treated animals [4]: increased
- Sost expression in osteocytes of treated animals [4]: unaffected
- % inhibition S273pPPARγ (20 μM) (S273pPPARγ; 20 μM): 100%
- glucose tolerance [5]: normalized
- decrease of bone mass [6]: 20%
- number of multi-nucleated TRAP-positive osteoclast-like cells [7]: increased

- concentration at 4 days [2]: 4010 nM
- retention levels in plasma, higher than rosiglitazone ([2]; animals treated for 4 days): 2.5 fold
SMILES: Cc1c(C)n(Cc2cccc(OC(C)(C)C(=O)O)c2)c2ccc(C(=O)N[C@@H](C)c3ccc(C(C)(C)C)cc3)cc12 [SR10171, (S)-2-(3-((5-((1-(4-(tert-butyl)phenyl)ethyl)carbamoyl)-2,3-dimethyl-1H-indol-1-yl)methyl)phenoxy)-2-methylpropanoic acid]
- cortical tissue mineral density (TMD) (cortical bone): 978.6 ± 10.4 mg HA/cm^3
- Trabecular bone mass in proximal tibia, increase vs non-treated controls ([3]; 15 mg/kg/d, 8 weeks): 26%
- decrease of number of marrow adipocytes ([3]; 15 mg/kg/d, 8 weeks): 50%
- periosteal labeling, times larger than control [3, 10]: 1.5 fold
- mineral apposition rate (MAR) and bone formation rate (BFR) ([3]; 15 mg/kg/d, 8 weeks): increase
- basal expression of Fabp4 and Adipoq (marrow MSCs): decreased
- decrease in marrow fat volume vs no drug control ([8]; 25 mg/kg/d, 4 weeks, tibia): ~5 fold
- periosteal labeling, times larger than control [8, 10]: 9 fold
- Dkk1 expression in osteocytes of treated animals [4]: decreased
- Sost expression in osteocytes of treated animals [4]: decreased
- S273 phosphorylation blocking activity, lower than rosiglitazone (S273pPPARγ; relative to rosiglitazone): 50%
- glucose tolerance [5]: normalized
- body weight ([9]; DIO mice maintained on HFD, 25 mg/kg/d, 4 weeks): decreased
- body weight ([9]; lean animals, 15 mg/kg/d, 8 weeks): no impact
- number of multi-nucleated TRAP-positive osteoclast-like cells [7]: increased
